Measured values published in ChEMBL document CHEMBL1671646, “Identification, characterization, and azole-binding properties of Mycobacterium smegmatis CYP164A2, a homolog of ML2088, the sole cytochrome P450 gene of Mycobacterium leprae” (Antimicrob Agents Chemother, 2009).

What was measured:
[1] = Binding affinity to Mycobacterium smegmatis ATCC 700084 CYP51 at pH7.5; parameters: species or system Mycolicibacterium smegmatis
[2] = Binding affinity to Mycobacterium smegmatis ATCC 700084 CYP51 in presence of 0.5 M NaCl at pH7.5; parameters: species or system Mycolicibacterium smegmatis
[3] = Binding affinity to Mycobacterium smegmatis ATCC 700084 CYP164A2 at pH7.5; parameters: species or system Mycolicibacterium smegmatis
[4] = Binding affinity to Mycobacterium smegmatis ATCC 700084 CYP164A2 in presence of 0.5 M NaCl at pH7.5; parameters: species or system Mycolicibacterium smegmatis
Cytochrome P450 130 = molecular target: T1, Cytochrome P450 130 (Mycobacterium tuberculosis, UniProt P9WPN5); experiment: Binding affinity to Mycobacterium tuberculosis CYP130
T1 sequence (P9WPN5 whole entry): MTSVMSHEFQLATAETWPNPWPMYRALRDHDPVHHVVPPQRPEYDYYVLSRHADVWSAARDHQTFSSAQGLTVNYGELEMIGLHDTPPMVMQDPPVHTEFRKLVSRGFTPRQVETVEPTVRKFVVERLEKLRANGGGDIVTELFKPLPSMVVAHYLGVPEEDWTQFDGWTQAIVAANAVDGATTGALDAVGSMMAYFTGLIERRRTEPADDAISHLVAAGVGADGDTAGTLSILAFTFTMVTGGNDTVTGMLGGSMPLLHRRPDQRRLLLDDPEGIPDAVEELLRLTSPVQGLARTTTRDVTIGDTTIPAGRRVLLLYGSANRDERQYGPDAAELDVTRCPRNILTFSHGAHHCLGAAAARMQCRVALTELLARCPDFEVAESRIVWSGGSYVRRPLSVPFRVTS

[5] = test system: Mycolicibacterium smegmatis; experiment: Selectivity ratio, ratio of Kd for Mycobacterium smegmatis ATCC 700084 CYP164A2 to Kd for Mycobacterium smegmatis ATCC 700084 CYP51
[6] = Selectivity ratio, ratio of Kd for Mycobacterium smegmatis ATCC 700084 CYP164A2 to Kd for Mycobacterium tuberculosis CYP121
[7] = molecular target: T2, Sterol 14alpha-demethylase (Mycobacterium tuberculosis, UniProt P9WPP9)
T2 sequence (P9WPP9 whole entry): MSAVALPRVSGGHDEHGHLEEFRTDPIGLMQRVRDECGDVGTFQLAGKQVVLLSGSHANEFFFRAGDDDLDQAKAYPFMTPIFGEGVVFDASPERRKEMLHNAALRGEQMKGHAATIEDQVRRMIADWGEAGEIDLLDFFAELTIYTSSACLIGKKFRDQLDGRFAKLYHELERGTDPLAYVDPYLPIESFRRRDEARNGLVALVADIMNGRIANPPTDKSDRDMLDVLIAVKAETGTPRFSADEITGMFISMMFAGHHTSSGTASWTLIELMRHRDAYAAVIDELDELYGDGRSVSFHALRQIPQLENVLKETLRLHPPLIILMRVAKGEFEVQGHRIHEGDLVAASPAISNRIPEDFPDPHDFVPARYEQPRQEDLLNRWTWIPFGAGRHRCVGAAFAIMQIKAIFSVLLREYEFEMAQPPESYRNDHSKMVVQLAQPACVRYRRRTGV
Description: Binding affinity to Mycobacterium tuberculosis CYP51

Mycocyclosin synthase = molecular target: T3, Mycocyclosin synthase (Mycobacterium tuberculosis, UniProt P9WPP7); experiment: Binding affinity to Mycobacterium tuberculosis CYP121
T3 sequence (P9WPP7 whole entry): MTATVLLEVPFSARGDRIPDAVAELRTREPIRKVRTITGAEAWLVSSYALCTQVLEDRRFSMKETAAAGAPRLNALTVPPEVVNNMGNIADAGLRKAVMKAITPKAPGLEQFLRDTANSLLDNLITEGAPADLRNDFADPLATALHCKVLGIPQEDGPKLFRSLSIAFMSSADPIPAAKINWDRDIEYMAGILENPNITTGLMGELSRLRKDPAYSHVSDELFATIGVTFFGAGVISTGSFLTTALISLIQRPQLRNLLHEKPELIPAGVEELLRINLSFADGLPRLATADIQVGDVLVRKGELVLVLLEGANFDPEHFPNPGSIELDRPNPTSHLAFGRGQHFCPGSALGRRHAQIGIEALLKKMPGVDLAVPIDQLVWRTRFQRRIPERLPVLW

[8] = test system: Mycolicibacterium smegmatis; experiment: Selectivity ratio of Kd for Mycobacterium smegmatis ATCC 700084 CYP164A2 in presence of 0.5 M NaCl to Kd for Mycobacterium smegmatis ATCC 700084 CYP164A2
[9] = molecular target: T4, Lanosterol 14-alpha demethylase (Bos taurus, UniProt Q4PJW3); experiment: Binding affinity to bovine CYP51
T4 sequence (Q4PJW3 whole entry): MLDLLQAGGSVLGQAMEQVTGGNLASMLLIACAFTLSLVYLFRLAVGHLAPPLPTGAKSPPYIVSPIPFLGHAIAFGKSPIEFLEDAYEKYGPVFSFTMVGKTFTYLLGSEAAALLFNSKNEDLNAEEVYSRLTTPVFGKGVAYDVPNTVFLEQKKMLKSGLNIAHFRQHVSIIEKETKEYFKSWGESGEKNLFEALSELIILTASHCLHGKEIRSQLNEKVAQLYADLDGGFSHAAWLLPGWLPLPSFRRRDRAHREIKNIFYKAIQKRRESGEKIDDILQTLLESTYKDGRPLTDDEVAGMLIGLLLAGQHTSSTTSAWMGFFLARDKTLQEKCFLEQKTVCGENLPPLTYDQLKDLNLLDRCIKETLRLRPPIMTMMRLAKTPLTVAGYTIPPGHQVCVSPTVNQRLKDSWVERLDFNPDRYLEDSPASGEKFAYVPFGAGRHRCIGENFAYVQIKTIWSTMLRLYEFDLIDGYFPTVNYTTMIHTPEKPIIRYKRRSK

[10] = Binding affinity to Mycobacterium smegmatis ATCC 700084 CYP164A2 in presence of 0.05 M NaCl; parameters: species or system Mycolicibacterium smegmatis
[11] = Binding affinity to Mycobacterium smegmatis ATCC 700084 CYP164A2 in presence of 0.1 M NaCl; parameters: species or system Mycolicibacterium smegmatis
[12] = Binding affinity to Mycobacterium smegmatis ATCC 700084 CYP164A2 in presence of 0.2 M NaCl; parameters: species or system Mycolicibacterium smegmatis
[13] = Binding affinity to Mycobacterium smegmatis ATCC 700084 CYP164A2 in presence of 0.3 M NaCl; parameters: species or system Mycolicibacterium smegmatis
[14] = Binding affinity to Mycobacterium smegmatis ATCC 700084 CYP164A2 in presence of 1 M NaCl; parameters: species or system Mycolicibacterium smegmatis
[15] = Binding affinity to Mycobacterium smegmatis ATCC 700084 CYP164A2 in presence of 2 M NaCl; parameters: species or system Mycolicibacterium smegmatis
[16] = test system: Mycolicibacterium smegmatis; experiment: Selectivity ratio, ratio of Kd for Mycobacterium smegmatis ATCC 700084 CYP164A2 in presence of 0.3 M NaCl to Kd for Mycobacterium smegmatis ATCC 700084 CYP164A2

Row | Structure (SMILES) | Kd [1] | Kd [2] | Kd [3] | Kd ([4]; read-out: Kd) | Ratio [8] | other results
1 | Clc1ccccc1C(c1ccccc1)(c1ccccc1)n1ccnc1 [CLOTRIMAZOLE] | 0.62 µM | 0.43 µM | 1.2 µM | 2.66 µM |  | Kd (Cytochrome P450 130): 13.3 µM
2 | Clc1ccc(COC(Cn2ccnc2)c2ccc(Cl)cc2Cl)cc1 (stereo not given) [ECONAZOLE] | 0.88 µM | 1.66 µM | 2.52 µM |  |  | Kd [4]: 9.31 µM; Ratio [5]: 2; Ratio [6]: 17; Kd [7]: 0.2 µM
3 | OC(Cn1cncn1)(Cn1cncn1)c1ccc(F)cc1F [FLUCONAZOLE] | 19.5 µM | 5.94 µM |  |  |  | Kd (Mycocyclosin synthase): 6 µM
4 | CCC(C)n1ncn(-c2ccc(N3CCN(c4ccc(OCC5COC(Cn6cncn6)(c6ccc(Cl)cc6Cl)O5)cc4)CC3)cc2)c1=O (stereo not given) [ITRACONAZOLE] | 1.26 µM | 3 µM | 0.78 µM | 1.11 µM | 3 | 
5 | CC(=O)N1CCN(c2ccc(OCC3COC(Cn4ccnc4)(c4ccc(Cl)cc4Cl)O3)cc2)CC1 (stereo not given) [KETOCONAZOLE] | 7.45 µM | 4.59 µM | 5.69 µM | 7.48 µM | 3 | Kd [9]: 0.32 µM
6 | Clc1ccc(COC(Cn2ccnc2)c2ccc(Cl)cc2Cl)c(Cl)c1 (stereo not given) [MICONAZOLE] | 1.16 µM | 0.94 µM | 2.48 µM | 5.57 µM |  | Ratio [5]: 2; Ratio [6]: 17; Kd [7]: 0.2 µM
7 | C[C@@H](c1ncncc1F)[C@](O)(Cn1cncn1)c1ccc(F)cc1F [VORICONAZOLE] | 5.94 µM | 4.57 µM | 3.24 µM | 19.7 µM | 3 | Kd [10]: 8.36 µM; Kd [11]: 17.9 µM; Kd [12]: 20.1 µM; Kd [13]: 34 µM; Kd [14]: 9.85 µM; Kd [15]: 13.2 µM; Ratio [16]: 12
